In brackets after ≈: the same amount, converted by molar mass. Several values for one entry are separate records, joined by “and”; a condition that tells them apart may be missing. Identical values can stand only once. Like-named read-outs stand apart in the source and are kept apart here.
What was measured:
[1] = system: Mycobacterium tuberculosis H37Rv (ATCC-27294); experiment: MIC by MABA (Microplate Alamar Blue Assay), in vitro antimicrobial activity; format: cell-based; settings: for Inhibition (%): Table 2, M. tuberculosis H37Rv (ATCC 27294), concentration not given
[2] = system: promastigote forms of Leishmania amazonensis; experiment: Leishmanicide evaluation in vitro, live parasites counted by fluorescence; format: cell-based; settings: L. amazonensis promastigotes, read-out: Percentage of parasitic inhibition; for inhibition at 160 µg/mL: concentration 160 μg/mL; for inhibition at 10 µg/mL: concentration 10 μg/mL
Description: The evaluation of the leishmanicide activity of the type I and II 1,2,3-triazole derivatives was made through in vitro essays against promastigote forms of Leishmania amazonensis, and after the incubation with compounds, live parasites are counted by fluorescence, thus obtaining as a result, the percentage of inhibition of the compounds evaluated.
Essays were performed in triplicate using pentamidine as a positive pattern with a 160 μg/mL concentration.
The evaluation of the leishmanicide activity of type I (Formula XII) and II (Formula XIII) imidazole derivatives was performed through in vitro essays against promastigote forms of Leishmania amazonensis, and after the incubation with compounds, live parasites are counted by fluorescence, thus obtaining as a result the inhibition percentage of the evaluated compounds.
Essays were performed in triplicate using pentamidine as a positive pattern with a 160 μg/mL concentration, determining which compounds evaluated inhibited the parasite in lower concentrations and the percentage higher than the pattern. Table 6 lists the results obtained in the leishmanicide evaluation of derivatives 140a 148a 146a, 149a.

[3] = Table 2, type I and II 1,2,3-triazoles, M. tuberculosis H37Rv (ATCC 27294), MABA
[4] = Mycobacterium tuberculosis, Table 2, type I and II 1,2,3-triazoles, M. tuberculosis H37Rv (ATCC 27294), MABA, read-out: MIC
[5] = Mycobacterium tuberculosis, Table 4, type I (Formula XII) imidazole derivatives, read-out: MIC
[6] = 1,2,3-triazole derivatives types I-III and rifampicin comparison pattern, M. tuberculosis H37Rv, MABA
[7] = Mycobacterium tuberculosis, Table 5, type II (Formula XIII) imidazole derivatives, read-out: MIC
[8] = Mycobacterium tuberculosis, 1,2,3-triazole derivatives types I-III and rifampicin comparison pattern, M. tuberculosis H37Rv, MABA, read-out: MIC

`COc1ccc(-n2cc(C=O)nn2)cc1` [114d, 4-carboxaldehyde-1-(4-methoxyphenyl)-1H-1,2,3-triazole] was tested, and the “MIC (μg/mL)” value [1, 3] was 10,0 μg/mL.

For `O=Cc1cn(-c2cccc(Cl)c2)nn1` [114f, 4-carboxaldehyde-1-(3-chlorophenyl)-1H-1,2,3-triazole], the MIC [1, 4] was 10 µg/mL (≈ 48.2 µM), the “Inhibition (%)” value [1] was 100% and the inhibition at 320 µg/mL ([2]; concentration 320 μg/mL) was 72%.

In the case of `CCOC(=O)c1ncn(-c2c(F)cccc2F)c1N(C(=O)c1ccccc1F)C(=O)c1ccccc1F` [146e], the MIC [1, 5] is reported as 3 µg/mL (≈ 5.87 µM).

For `Brc1ccc(/N=C/c2cn(-c3ccc(Br)cc3)nn2)cc1` [compound 120, (E)-4-bromo-N-((1-(4-bromophenyl)-1H-1,2,3-triazole-4-il)methylene) benzenamine], the MIC [1, 6] was 20 µg/mL (≈ 49.3 µM).

`N#Cc1cccc(-n2cc(C(F)F)nn2)c1` [121h, 1-(3-cyanophenyl)-4-difluoromethyl-1H-1,2,3-triazole] showed an MIC [1, 4] of 80 µg/mL (≈ 363 µM).

With `FC(F)c1cn(-c2ccc(Cl)cc2)nn1` [121a, 1-(4-chlorophenyl)-4-difluoromethyl-1H-1,2,3-triazole] the MIC ([1]; Mycobacterium tuberculosis) was 40 µg/mL (≈ 174 µM) and the “MIC (μg/mL)” value [1, 3] was 40,0 μg/mL.

`N#Cc1ccc(-n2cc(C(F)F)nn2)cc1` [121i, 1-(4-cyanophenyl)-4-difluoromethyl-1H-1,2,3-triazole] was tested, and the MIC [1, 4] was 20 µg/mL (≈ 90.8 µM).

In the case of `COc1ccc(-n2cc(C(F)F)nn2)cc1OC` [121m, 1-(3,4-dimethoxyphenyl)-4-difluoromethyl-1H-1,2,3-triazole], the MIC [1, 4] is reported as 80 µg/mL (≈ 313 µM) and the “Inhibition (%)” value [1] is reported as 66%.

With `FC(F)c1cn(-c2cc(Cl)cc(Cl)c2)nn1` [121g, 1-(3,5-dichlorophenyl)-4-difluoromethyl-1H-1,2,3-triazole] the MIC [1, 4] was 80 µg/mL (≈ 303 µM) and the “Inhibition (%)” value [1] was 55%.

In the case of `O=Cc1cn(-c2cc(Cl)cc(Cl)c2)nn1` [114g, 4-carboxaldehyde-1-(3,5-dichlorophenyl)-1H-1,2,3-triazole], the MIC [1, 6] is reported as 2.5 µg/mL (≈ 10.3 µM) and the “MIC (μg/mL)” value [1, 3] is reported as 2,5 μg/mL.

Work on `CCOC(=O)c1ncn(-c2ccc(Cl)cc2)c1NC(=O)c1ccccc1F` [149c, Ester ethyl 1-(4-chlorophenyl)-5-[(2-fluorobenzoic)amino]-1H-imidazole-4-carboxylate] yielded an MIC [1, 7] of 3 µg/mL (≈ 7.74 µM).

`CO[C@H]1/C=C/O[C@@]2(C)Oc3c(C)c(O)c4c(O)c(c(/C=N/N5CCN(C)CC5)c(O)c4c3C2=O)NC(=O)/C(C)=C\C=C\[C@H](C)[C@H](O)[C@@H](C)[C@@H](O)[C@@H](C)[C@H](OC(C)=O)[C@@H]1C` [Rifampicin, rifampicin, reference compound] was tested, and the MIC [1, 6] was 1.0 µg/mL (≈ 1.22 µM), the MIC ([1]; Mycobacterium tuberculosis, imidazole derivatives and rifampicin comparison pattern, M. tuberculosis H37Rv, MABA, read-out: MIC) was 1 µg/mL (≈ 1.22 µM) and the “MIC (μg/mL)” value [1, 3] was 1,0 μg/mL.

With `N#Cc1cccc(-n2cc(C=O)nn2)c1` [114h, 4-carboxaldehyde-1-(3-cyanophenyl)-1H-1,2,3-triazole] the “MIC (μg/mL)” value [1, 3] was 20,0 μg/mL.

`N=C(N)c1ccc(OCCCCCOc2ccc(C(=N)N)cc2)cc1` [Pentamidine, pentamidine, reference compound] was tested, and the inhibition at 160 µg/mL [2] was 53%.

In the case of `O=Cc1cn(-c2ccc(Cl)cc2)nn1` [114a, 4-carboxaldehyde-1-(4-chlorophenyl)-1H-1,2,3-triazole], the MIC [1, 6] is reported as 5 µg/mL and 5.0 µg/mL and the “MIC (μg/mL)” value [1, 3] is reported as 5,0 μg/mL.

`COc1ccc(OC)c(-n2cc(C=O)nn2)c1` [114e, 4-carboxaldehyde-1-(2,5-dimethoxyphenyl)-1H-1,2,3-triazole] was tested, and the “MIC (μg/mL)” value [1, 3] was 80,0 μg/mL.

For `O=Cc1cn(-c2ccc([N+](=O)[O-])cc2)nn1` [114j, 4-carboxaldehyde-1-(4-nitrophenyl)-1H-1,2,3-triazole], the MIC [1, 8] was 20 µg/mL (≈ 91.7 µM) and the inhibition at 160 µg/mL [2] was 11%.

Molecule `CCOC(=O)c1ncn(-c2ccc(C#N)cc2)c1N(C(=O)c1ccc(F)cc1)C(=O)c1ccc(F)cc1` [140b] has an MIC [1, 5] of 1.2 µg/mL (≈ 2.4 µM).

For `Cc1ccc(-n2cc(C(F)F)nn2)cc1` [121c, 1-(4-methylphenyl)-4-difluoromethyl-1H-1,2,3-triazole], the MIC [1, 4] was 40 µg/mL (≈ 191 µM) and the “Inhibition (%)” value [1] was 87%.

`CCOC(=O)c1ncn(-c2ccc(C)cc2)c1NC(=O)c1ccc(F)cc1` [148a, Ester ethyl 5-[(4-fluorobenzoic)amino]-1-(4-methylphenyl)-1H-imidazole-4-carboxylate] gave an MIC [1, 7] of 3 µg/mL (≈ 8.17 µM) and an inhibition at 10 µg/mL [2] of 90%.

With `FC(F)c1cn(-c2ccc(Br)cc2)nn1` [121b, 1-(4-bromophenyl)-4-difluoromethyl-1H-1,2,3-triazole] the MIC [1, 4] was 20 µg/mL (≈ 73 µM) and the “Inhibition (%)” value [1] was 75%.

Molecule `O=[N+]([O-])c1ccc(-n2cc(C(F)F)nn2)cc1` [121j, 1-(4-nitrophenyl)-4-difluoromethyl-1H-1,2,3-triazole] has an MIC [1, 8] of 40 µg/mL (≈ 167 µM).

`CCOC(=O)c1ncn(-c2ccc(C#N)cc2)c1NC(=O)c1ccccc1F` [149b, Ester ethyl 1-(4-cyanophenyl)-5-[(2-fluorobenzoic)amino]-1H-imidazole-4-carboxylate] was tested, and the MIC [1, 7] was 3 µg/mL (≈ 7.93 µM).

`COc1ccccc1-n1cc(C=O)nn1` [114l, 4-carboxaldehyde-1-(2-methoxyphenyl)-1H-1,2,3-triazole] was tested, and the “MIC (μg/mL)” value [1, 3] was 40,0 μg/mL.

With `N#Cc1ccc(-n2cc(C=O)nn2)cc1` [114i, 4-carboxaldehyde-1-(4-cyanophenyl)-1H-1,2,3-triazole] the MIC [1, 6] was 5.0 µg/mL (≈ 25.2 µM) and the “MIC (μg/mL)” value [1, 3] was 5,0 μg/mL.

With `CCOC(=O)c1ncn(-c2ccc(C)cc2)c1NC(=O)c1ccccc1F` [149a, Ester ethyl 5-[(2-fluorobenzoic)amino]-1-(4-methylphenyl)-1H-imidazole-4-carboxylate] the inhibition at 160 µg/mL [2] was 93%.

`Clc1ccc(/N=C/c2cn(-c3ccc(Cl)cc3)nn2)cc1` [compound 119, (E)-4-chloride-N-((1-(4-chlorophenyl)-1H-1,2,3-triazole-4-il)methylene) benzenamine] gave an MIC [1, 6] of 40 µg/mL (≈ 126 µM).

In the case of `FC(F)c1cn(-c2cccc(Cl)c2)nn1` [121f, 1-(3-chlorophenyl)-4-difluoromethyl-1H-1,2,3-triazole], the MIC [1, 4] is reported as 80 µg/mL (≈ 348 µM), the “Inhibition (%)” value [1] is reported as 54% and the inhibition at 10 µg/mL [2] is reported as 93%.

In the case of `COc1ccc(-n2cc(C(F)F)nn2)cc1` [121d, 1-(4-methoxyphenyl)-4-difluoromethyl-1H-1,2,3-triazole], the MIC [1, 4] is reported as 10 µg/mL (≈ 44.4 µM) and the “Inhibition (%)” value [1] is reported as 93%.

Molecule `CCOC(=O)c1ncn(-c2ccc(Cl)cc2)c1N(C(=O)c1ccccc1F)C(=O)c1ccccc1F` [146c] has an MIC [1, 5] of 3 µg/mL (≈ 5.88 µM).

In the case of `COc1ccc(OC)c(-n2cc(C(F)F)nn2)c1` [121e, 1-(2,5-dimethoxyphenyl)-4-difluoromethyl-1H-1,2,3-triazole], the MIC [1, 4] is reported as 80 µg/mL (≈ 313 µM) and the “Inhibition (%)” value [1] is reported as 74%.

`COc1ccc(-n2cc(C=O)nn2)cc1OC` [114m, 4-carboxaldehyde 1-(3,4-dimethoxyphenyl)-1H-1,2,3-triazole] was tested, and the “MIC (μg/mL)” value [1, 3] was 80,0 μg/mL.

With `O=Cc1cn(-c2ccc(Br)cc2)nn1` [114b, 4-carboxaldehyde-1-(4-bromophenyl)-1H-1,2,3-triazole] the MIC [1, 6] was 5.0 µg/mL (≈ 19.8 µM) and the “MIC (μg/mL)” value [1, 3] was 5,0 μg/mL.

Work on `CCOC(=O)c1ncn(-c2ccc(C)cc2)c1N(C(=O)c1ccc(F)cc1)C(=O)c1ccc(F)cc1` [140a] yielded an inhibition at 10 µg/mL [2] of 79%.

`CCOC(=O)c1ncn(-c2ccc(C)cc2)c1N(C(=O)c1ccccc1F)C(=O)c1ccccc1F` [146a] gave an MIC [1, 5] of 3 µg/mL (≈ 6.13 µM) and an inhibition at 80 µg/mL ([2]; concentration 80 μg/mL) of 75%.

For `Cc1ccc(-n2cc(C=O)nn2)cc1` [114c, 4-carboxaldehyde-1-(4-methylphenyl)-1H-1,2,3-triazole], the MIC [1, 6] was 2.5 µg/mL (≈ 13.4 µM) and the “MIC (μg/mL)” value [1, 3] was 2,5 μg/mL.
